According to patent US20210205244A1, “PREVENTION AND/OR TREATMENT OF CHRONIC FATIGUE SYNDROME” (BOHNE ASKØY AS, priority 2016, published 2021):
Structures can show the parent of a compound that is named as a salt.

What was measured:
P12 = details: P12, altogether 8 doses; cited from earlier work
Person 5 = experiment: Medicinal drug use in combination with the treatment; assay type: in vivo, human; details: Person 5, excluded after 20 weeks
Method: Three persons were not receiving the drinkable for self-treatment: 2, 5 and 6. […] Person 6 was excluded of toxicological consideration after 20 weeks because massive use of painkiller […] forte, 600 mg: 20 tablets per day, and was practically an abuser of medicinal drugs. Person 2 was excluded because use of sleep medicine-Alimemazin tartrate. All three drugs listed with long list of the negative by-effects. Those effects are very similar to the symptoms on the list of Canadian Criteria. Further treatment with mixture of drinkable oxalates was therefore is not considerate.

[1] = tested on: healthy and ME affected persons; details: general knowledge; cited from earlier work

In the case of “Rituximab: Rituximab therapy given in clinical studies at Haukeland University Hospital”, the Response to therapy (P12) is listed as “non-responder”.

For CN(C)CCC[C@@]1(c2ccc(F)cc2)OCc2cc(C#N)ccc21 [Escitalopram Oxalate], the “Adverse effect in combination with mixture of drinkable oxalates” value (Person 5) was “massive diarrhea”.

In the case of O=C(O)CCCCC1CCSS1 (stereo not drawn) [ALA, alpha-lipoic acid], the “Time of excretion via urine post intake” value [1] is listed as 30 to 60 min.
